Source: PubChem BioAssay (NCI)
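Five concentrations, 48 hours, 96-well plates. The concentration for 50% growth inhibition is given as GI50. TGI: total growth inhibition.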

Assays:
Test in all cases: NCI anticancer screen, dose series, 48 h
786-0 renal = system: 786-0 renal
A498 renal = system: A498 renal
A549 NSCLC = system: A549 NSCLC
ACHN renal = system: ACHN renal
BT-549 breast = system: BT-549 breast
CAKI-1 renal = system: CAKI-1 renal
CCRF-CEM leukemia = system: CCRF-CEM leukemia
COLO 205 colon = system: COLO 205 colon
DU-145 prostate = system: DU-145 prostate
EKVX NSCLC = system: EKVX NSCLC
HCC-2998 colon = system: HCC-2998 colon
HCT-116 colon = system: HCT-116 colon
HCT-15 colon = system: HCT-15 colon
HL-60(TB) leukemia = system: HL-60(TB) leukemia
HOP-62 NSCLC = system: HOP-62 NSCLC
HOP-92 NSCLC = system: HOP-92 NSCLC
HS 578T breast = system: HS 578T breast
HT29 colon = system: HT29 colon
IGROV1 ovarian = system: IGROV1 ovarian
K-562 leukemia = system: K-562 leukemia
KM12 colon = system: KM12 colon
LOX IMVI melanoma = system: LOX IMVI melanoma
M14 melanoma = system: M14 melanoma
MALME-3M melanoma = system: MALME-3M melanoma
MCF7 breast = system: MCF7 breast
MDA-MB-231 breast = system: MDA-MB-231 breast
MDA-MB-435 = system: MDA-MB-435
MOLT-4 leukemia = system: MOLT-4 leukemia
NCI-H226 lung = system: NCI-H226 lung
NCI-H23 lung = system: NCI-H23 lung
NCI-H460 lung = system: NCI-H460 lung
NCI-H522 lung = system: NCI-H522 lung
NCI/ADR-RES ovarian = system: NCI/ADR-RES ovarian
OVCAR-3 ovarian = system: OVCAR-3 ovarian
OVCAR-4 ovarian = system: OVCAR-4 ovarian
OVCAR-8 ovarian = system: OVCAR-8 ovarian
PC-3 prostate = system: PC-3 prostate
RPMI-8226 leukemia = system: RPMI-8226 leukemia
RXF 393 renal = system: RXF 393 renal
SF-268 CNS = system: SF-268 CNS
SF-295 CNS = system: SF-295 CNS
SF-539 CNS = system: SF-539 CNS
SK-MEL-2 melanoma = system: SK-MEL-2 melanoma
SK-MEL-28 melanoma = system: SK-MEL-28 melanoma
SK-MEL-5 melanoma = system: SK-MEL-5 melanoma
SK-OV-3 ovarian = system: SK-OV-3 ovarian
SN12C renal = system: SN12C renal
SNB-19 CNS = system: SNB-19 CNS
SNB-75 CNS = system: SNB-75 CNS
SR leukemia = system: SR leukemia
T-47D breast = system: T-47D breast
TK-10 renal = system: TK-10 renal
U251 CNS = system: U251 CNS
UACC-257 melanoma = system: UACC-257 melanoma
UACC-62 melanoma = system: UACC-62 melanoma
UO-31 renal = system: UO-31 renal

## COc1ccc(C(O)c2cc3c(N)c(C(=O)Nc4cccc(OC)c4)sc3nc2C)cc1 (configuration not stated)
786-0 renal
  GI50: 1140 nM
  TGI: 2790 nM
A498 renal
  GI50: > 50000 nM
  TGI: > 50000 nM
A549 NSCLC
  GI50: 5460 nM
  TGI: > 50000 nM
ACHN renal
  GI50: 1210 nM
  TGI: 3150 nM
BT-549 breast
  GI50: 1230 nM
  TGI: 3220 nM
CAKI-1 renal
  GI50: 1530 nM
  TGI: 5270 nM
CCRF-CEM leukemia
  GI50: 1310 nM
  TGI: 4640 nM
COLO 205 colon
  GI50: 1750 nM
  TGI: > 50000 nM
DU-145 prostate
  GI50: 2070 nM
  TGI: > 50000 nM
EKVX NSCLC
  GI50: 1600 nM
  TGI: > 50000 nM
HCC-2998 colon
  GI50: 871 nM
  TGI: 1630 nM
HCT-116 colon
  GI50: 242 nM
  TGI: 953 nM
HCT-15 colon
  GI50: 1000 nM
  TGI: 2510 nM
HL-60(TB) leukemia
  GI50: 1350 nM
  TGI: > 50000 nM
HOP-62 NSCLC
  GI50: 1940 nM
  TGI: > 50000 nM
HOP-92 NSCLC
  GI50: > 50000 nM
  TGI: > 50000 nM
HS 578T breast
  GI50: 1650 nM
  TGI: 4670 nM
HT29 colon
  GI50: 1360 nM
  TGI: 3700 nM
IGROV1 ovarian
  GI50: 1170 nM
  TGI: 3460 nM
K-562 leukemia
  GI50: 1200 nM
  TGI: 7200 nM
KM12 colon
  GI50: 1030 nM
  TGI: 2410 nM
LOX IMVI melanoma
  GI50: 879 nM
  TGI: 1640 nM
M14 melanoma
  GI50: 1280 nM
  TGI: 4650 nM
MALME-3M melanoma
  GI50: 1910 nM
  TGI: 28900 nM
MCF7 breast
  GI50: 289 nM
  TGI: > 50000 nM
MDA-MB-231 breast
  GI50: 1390 nM
  TGI: 3970 nM
MDA-MB-435
  GI50: 1110 nM
  TGI: 2180 nM
MOLT-4 leukemia
  GI50: 1430 nM
  TGI: 4590 nM
NCI-H226 lung
  GI50: 4010 nM
  TGI: 36800 nM
NCI-H23 lung
  GI50: 1200 nM
  TGI: 3290 nM
NCI-H460 lung
  GI50: 1970 nM
  TGI: > 50000 nM
NCI-H522 lung
  GI50: 1430 nM
  TGI: 4940 nM
NCI/ADR-RES ovarian
  GI50: 1380 nM
  TGI: 3960 nM
OVCAR-3 ovarian
  GI50: 1260 nM
  TGI: 3230 nM
OVCAR-4 ovarian
  GI50: 2170 nM
  TGI: > 50000 nM
OVCAR-8 ovarian
  GI50: 1570 nM
  TGI: > 50000 nM
PC-3 prostate
  GI50: 1150 nM
  TGI: 3040 nM
RPMI-8226 leukemia
  GI50: 174 nM
  TGI: 809 nM
RXF 393 renal
  GI50: 1010 nM
  TGI: 2310 nM
SF-268 CNS
  GI50: 1770 nM
  TGI: 37900 nM
SF-295 CNS
  GI50: 1420 nM
  TGI: 4500 nM
SF-539 CNS
  GI50: 1260 nM
  TGI: 3030 nM
SK-MEL-2 melanoma
  GI50: 49800 nM
  TGI: > 50000 nM
SK-MEL-28 melanoma
  GI50: 1580 nM
  TGI: 4940 nM
SK-MEL-5 melanoma
  GI50: 1690 nM
  TGI: 5420 nM
SK-OV-3 ovarian
  GI50: 11500 nM
  TGI: > 50000 nM
SN12C renal
  GI50: 1240 nM
  TGI: 3380 nM
SNB-19 CNS
  GI50: 1990 nM
  TGI: > 50000 nM
SNB-75 CNS
  GI50: 12200 nM
  TGI: > 50000 nM
SR leukemia
  GI50: 301 nM
  TGI: 7510 nM
T-47D breast
  GI50: 3830 nM
  TGI: > 50000 nM
TK-10 renal
  GI50: 5990 nM
  TGI: > 50000 nM
U251 CNS
  GI50: 1340 nM
  TGI: 7370 nM
UACC-257 melanoma
  GI50: 1740 nM
  TGI: > 50000 nM
UACC-62 melanoma
  GI50: 1160 nM
  TGI: 3070 nM
UO-31 renal
  GI50: 838 nM
  TGI: 1720 nM
